According to patent publication EP4763868A1, “RECOMBINANT PTH FUSION PROTEIN, CONSTRUCTION METHOD THEREFOR, AND APPLICATION THEREOF” (KANGZHONG (GUANGDONG) INC., priority 2024, dated 2025):

T1: PTHR1 on UMR-106 cells (UniProt P25961 27-591, limits assumed)
T1 sequence (looked up): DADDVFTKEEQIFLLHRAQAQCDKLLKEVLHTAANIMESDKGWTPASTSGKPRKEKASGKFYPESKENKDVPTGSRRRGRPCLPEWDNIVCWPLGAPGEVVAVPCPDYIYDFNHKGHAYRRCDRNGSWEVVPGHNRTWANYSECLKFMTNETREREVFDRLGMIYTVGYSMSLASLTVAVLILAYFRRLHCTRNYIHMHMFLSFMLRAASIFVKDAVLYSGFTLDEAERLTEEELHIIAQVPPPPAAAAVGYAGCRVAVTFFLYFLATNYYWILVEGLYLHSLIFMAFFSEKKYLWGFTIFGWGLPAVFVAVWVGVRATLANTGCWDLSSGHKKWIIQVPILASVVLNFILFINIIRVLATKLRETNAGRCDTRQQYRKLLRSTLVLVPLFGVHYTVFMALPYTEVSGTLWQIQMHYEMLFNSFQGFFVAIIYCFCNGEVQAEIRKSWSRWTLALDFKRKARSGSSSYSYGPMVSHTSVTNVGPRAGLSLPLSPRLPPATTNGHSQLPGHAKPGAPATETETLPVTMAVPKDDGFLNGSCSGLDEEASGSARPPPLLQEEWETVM


Key:
[1] = cited from earlier work
PTHR1 on UMR-106 cells = biological target: T1, PTHR1 on UMR-106 cells; assay: cell-based or functional assay

| EC50, biological activity (pGL4.29 reporter, fluorescence intensity) (PTHR1 on UMR-106 cells) [pM] | Molecule | also measured |
| --- | --- | --- |
|  | CC[C@H](C)[C@H](NC(=O)[C@H](CCC(=O)O)NC(=O)[C@H](CO)NC(=O)[C@@H](NC(=O)[C@@H](N)CO)C(C)C)C(=O)N[C@@H](CCC(N)=O)C(=O)N[C@@H](CC(C)C)C(=O)N[C@@H](CCSC)C(=O)N[C@@H](Cc1cnc[nH]1)C(=O)N[C@@H](CC(N)=O)C(=O)N[C@@H](CC(C)C)C(=O)NCC(=O)N[C@@H](CCCCN)C(=O)N[C@@H](Cc1cnc[nH]1)C(=O)N[C@@H](CC(C)C)C(=O)N[C@@H](CC(N)=O)C(=O)N[C@@H](CO)C(=O)N[C@@H](CCSC)C(=O)N[C@@H](CCC(=O)O)C(=O)N[C@@H](CCCN=C(N)N)C(=O)N[C@H](C(=O)N[C@@H](CCC(=O)O)C(=O)N[C@@H](Cc1c[nH]c2ccccc12)C(=O)N[C@@H](CC(C)C)C(=O)N[C@@H](CCCN=C(N)N)C(=O)N[C@@H](CCCCN)C(=O)N[C@@H](CCCCN)C(=O)N[C@@H](CC(C)C)C(=O)N[C@@H](CCC(N)=O)C(=O)N[C@@H](CC(=O)O)C(=O)N[C@H](C(=O)N[C@@H](Cc1cnc[nH]1)C(=O)N[C@@H](CC(N)=O)C(=O)N[C@@H](Cc1ccccc1)C(=O)O)C(C)C)C(C)C [TP(PTH(1-34)), teriparatide] | half-life ([1]; human, in vivo): 30 min |
|  | Transcon PTH(1-34): polyethylene glycol (PEG)-conjugated prodrug of PTH(1-34) by Ascendis Pharma A/S | time for which serum calcium is maintained at normal physiological levels ([1]; patients, after administration): ≤ 24 hours |
| 61.4 | triple-ECD-binding fusion protein T002G-K |  |
| 0 | human serum albumin nanobody NbHSA (VHH) VHH: QVQLVESGGGLVQTGGSLRLSCAASGSTLVGHSVGFFRQAPGKEREPVVCISSTETVMYYTNSVKGRFTISRDNAKNTVWLQMDRLAPEDTAVYYCAARPQLCSALDYRYNSWGPGTQVTVSS |  |
